Test results as given in patent US7671050B2, “Triazolophthalazines” (NYCOMED GmbH, priority 2005, dated 2010).
No end group written: not given here.

Experiments:
[1] = system: HUVEC monolayers; test: Inhibition of thrombin-stimulated macromolecule (HRP) permeability of HUVEC monolayers; type: cell-based, human; conditions: 1 U/ml thrombin; for IC50: Homo sapiens, 1 h, HUVEC on Transwells, 1 μM RP73401, 10 μM Motapizone, 1 mM SNP or 100 nM ANP, HRP passage after 60 min, read-out: Inhibition of SNP- or ANP-induced permeability, -log IC50 (converted); for Effect on thrombin-induced hyperpermeability (HRP passage): 1 μM RP73401 together with 10 μM Motapizone, 60 min
Experimental: The procedure to measure macromolecule permeability of endothelial cell monolayers followed the method described by Langeler & van Hinsbergh (1988) with modifications. Human umbilical vein endothelial cells were isolated from umbilical cords according to standard procedures (Jaffe et al. 1973) and cultured in endothelial cell basal medium (EBM) supplemented with 2% FCS, 0.5 ng/ml VEGF, 10 ng/ml bFGF, 5 ng/ml EGF, 20 ng/ml Long R3 IGF-1, 0.2 μg/ml hydrocortisone, 1 μg/ml ascorbic acid, 22.5 μg/ml heparin, 50 μg/ml gentamicin, 50 ng/ml amphotericin B (EGM2 purchased from Promocell GmbH, Heidelberg, Germany). At confluency, cells were trypsinized and replated at 73000 cells per well on 3 μm polycarbonate filter Transwell inserts (Costar GmbH, Bodenheim, Germany) precoated with 10 μg cm^2−1 Fibronectin (Sigma, Taufkirchen, Germany). HUVECs were cultured in EGM2 (100 μl in the upper wells and 600 μl in the lower wells) over four days prior the experiments and medium was changed every other day. At the day of the experiment culture medium was replaced by M199 with 1% human serum albumin. Endothelial cells were preincubated with cyclic nucleotide modifiers (the selective PDE3 inhibitor motapizone, the selective PDE4 inhibitor RP73401, the cGMP generators ANP or SNP and PDE2 inhibitors) for 15 min. HUVECs were then stimulated with Thrombin (1 U ml^−1) (Sigma, Taufkichen, Germany) and horsh radish peroxidase (5 μg/ml) (Sigma, Taufkirchen, Germany) as the macromolecule marker protein was added to the upper wells. Following 1 h incubation time Transwells were removed and the activity of horsh radish peroxidase that penetrated the endothelial cell monolayer was measured in the lower wells with the 3,3′,5,5′-tetramethylbenzidine liquid substrate system from Sigma (Taufkirchen, Germany).
In parallel, compounds according to the invention can inhibit Thrombin-induced permeability of HUVEC monolayers for horsh radish peroxidase (HRP) as a macromolecule marker. […] The concentration-dependent inhibition of HRP permeability at different concentrations was assessed from the percent inhibition in the presence and absence of the PDE2 inhibitors and in the presence of 1 μM RP73401, 10 μM Motapizone and 100 nM ANP.
HUVEC cells on 3 μm polycarbonate filters (Transwells) were preincubated with 1 μM RP73401 (to block PDE4) and 10 μM Motapizone (to block PDE3), 1 mM SNP or 100 nM ANP and test sample over 15 min and then stimulated with 1 U/ml thrombin. HRP passage into the lower wells was assessed after 60 min.

Compound	IC50 [1]	Effect on the block of thrombin-induced hyperpermeability by RP73401 and Motapizone ([1]; 1 mM SNP or 100 nM ANP added to 1 μM RP73401 and 10 μM Motapizone)	melting point	Effect on thrombin-induced hyperpermeability (HRP passage) [1]
CCOc1cccc(Nc2nn3c(-c4ccc(OC)cc4)nnc3c3ccccc23)c1 [Example 23, (3-Ethoxyphenyl)-[3-(4-methoxyphenyl)-[1,2,4]triazolo[3,4-a]phthalazin-6-yl]-amine]	7.94 to 316 nM			
ANP: cGMP generator (SLRRSSCFGGRMDRIGAQSGLGCNSFRY; ends and bridges not checked; cysteine pairing not given here; UniProt P01160 124-151, looked up) [reference compound]		partially reversed		
COc1ccc(-c2nnc3c4ccccc4c(Nc4ccc(N5CCN(C)CC5)cc4)nn23)cc1 [Example 18, [3-(4-Methoxyphenyl)-[1,2,4]triazolo[3,4-a]phthalazin-6-yl]-[4-(4-methylpiperazin-1-yl)-phenyl]-amine]	7.94 to 316 nM		266 °C	
COC(=O)c1cccc(-c2nnc3c4ccccc4c(Nc4ccc(N5CCOCC5)cc4)nn23)c1 [Example 19, 3-[6-(4-Morpholin-4-yl-phenylamino)-[1,2,4]triazolo[3,4-a]phthalazin-3-yl]-benzoic acid methyl ester]	7.94 to 316 nM			
COc1ccc(-c2nnc3c4ccccc4c(Nc4cc(OC)cc(OC)c4)nn23)cc1 [Example 27, (3,5-Dimethoxyphenyl)-[3-(4-methoxyphenyl)-[1,2,4]triazolo[3,4-a]phthalazin-6-yl]-amine]	7.94 to 316 nM		218 °C	
COc1ccc(-c2nnc3c4ccccc4c(Nc4ccc(OC(F)(F)F)cc4)nn23)cc1 [Example 14, [3-(4-Methoxyphenyl)-[1,2,4]triazolo[3,4-a]phthalazin-6-yl]-(4-trifluoromethoxyphenyl)-amine]	7.94 to 316 nM		300 °C	
COc1ccc(Nc2nn3c(-c4ccc(OC)cc4)nnc3c3ccccc23)cc1 [Example 1, (4-Methoxyphenyl)-[3-(4-methoxyphenyl)-[1,2,4]triazolo[3,4-a]phthalazin-6-yl]-amine]			301 to 304 °C	
COc1ccc(-c2nnc3c4ccccc4c(Nc4cccc(OC(F)(F)F)c4)nn23)cc1 [Example 24, [3-(4-Methoxyphenyl)-[1,2,4]triazolo[3,4-a]phthalazin-6-yl]-(3-trifluoromethoxyphenyl)-amine]	7.94 to 316 nM			
COc1ccc(-c2nnc3c4ccccc4c(Nc4cccc(OC(F)F)c4)nn23)cc1 [Example 28, [3-(1,1-Difluoromethoxy)-phenyl]-[3-(4-methoxyphenyl)-[1,2,4]triazolo[3,4-a]phthalazin-6-yl]-amine]	7.94 to 316 nM		247 °C	
COc1ccc(-c2nnc3c4ccccc4c(Nc4ccc(Br)cc4)nn23)cc1 [Example 31, (4-Bromo-phenyl)-[3-(4-methoxy-phenyl)-[1,2,4]triazolo[3,4-a]phthalazin-6-yl]-amine]			314 to 316 °C	
COc1ccc(-c2nnc3c4ccccc4c(Nc4ccc(SC)cc4)nn23)cc1 [Example 16, [3-(4-Methoxyphenyl)-[1,2,4]triazolo[3,4-a]phthalazin-6-yl]-(4-methylsulfanylphenyl)-amine]	7.94 to 316 nM		326 °C	
COc1ccc(-c2nnc3c4ccccc4c(Nc4ccc(OCc5ccccc5)cc4)nn23)cc1 [Example 10, (4-Benzyloxyphenyl)-[3-(4-methoxyphenyl)-[1,2,4]triazolo[3,4-a]phthalazin-6-yl]-amine]	7.94 to 316 nM		297 °C	
CCOc1ccc(Nc2nn3c(-c4ccc(OC)cc4)nnc3c3ccccc23)cc1OCC [Example 29, (3,4-Diethoxyphenyl)-[3-(4-methoxyphenyl)-[1,2,4]triazolo[3,4-a]phthalazin-6-yl]-amine]	7.94 to 316 nM		242.5 °C	
COc1ccc(-c2nnc3c4ccccc4c(Nc4ccc(C)cc4)nn23)cc1 [Example 11, [3-(4-Methoxyphenyl)-[1,2,4]triazolo[3,4-a]phthalazin-6-yl]-p-tolyl-amine]	7.94 to 316 nM		311 °C	
COc1ccc(-c2nnc3c4ccccc4c(Nc4ccc(Cl)cc4)nn23)cc1 [Example 5, (4-Chlorophenyl)-[3-(4-methoxyphenyl)-[1,2,4]triazolo[3,4-a]phthalazin-6-yl]-amine]			295 °C	
COC(=O)c1ccc(-c2nnc3c4ccccc4c(Nc4ccc(N5CCOCC5)cc4)nn23)cc1 [Example 22, 4-[6-(4-Morpholin-4-yl-phenylamino)-[1,2,4]triazolo[3,4-a]phthalazin-3-yl]-benzoic acid methyl ester]			303 °C	
COc1ccc(-c2nnc3c4ccccc4c(Nc4ccc(Oc5ccccc5)cc4)nn23)cc1 [Example 8, [3-(4-Methoxyphenyl)-[1,2,4]triazolo[3,4-a]phthalazin-6-yl]-(4-phenoxyphenyl)-amine]	7.94 to 316 nM		275.5 °C	
c1ccc(Oc2ccc(-c3nnc4c5ccccc5c(Nc5ccc(N6CCOCC6)cc5)nn34)cc2)cc1 [Example 17, (4-Morpholin-4-yl-phenyl)-[3-(4-phenoxyphenyl)-[1,2,4]triazolo[3,4-a]phthalazin-6-yl]-amine]	7.94 to 316 nM		306 °C	
c1ccc2c(c1)c(Nc1ccc(N3CCOCC3)cc1)nn1c(-c3ccc(N4CCOCC4)cc3)nnc21 [Example 20, (4-Morpholin-4-yl-phenyl)-[3-(4-morpholin-4-yl-phenyl)-[1,2,4]triazolo[3,4-a]phthalazin-6-yl]-amine]			322 °C	
c1ccc(-c2nnc3c4ccccc4c(Nc4ccc(N5CCOCC5)cc4)nn23)cc1 [Example 25, (4-Morpholin-4-ylphenyl)-(3-phenyl-[1,2,4]triazolo[3,4-a]phthalazin-6-yl)-amine]	7.94 to 316 nM		306 °C	
CC1CC(=O)NN=C1c1cc(-n2ccnc2)cs1 (centres unmarked) [Motapizone, reference compound]				completely blocked
COc1ccc(-c2nnc3c4ccccc4c(Nc4cccc(OC)c4)nn23)cc1 [Example 7, (3-Methoxyphenyl)-[3-(4-methoxyphenyl)-[1,2,4]triazolo[3,4-a]phthalazin-6-yl]-amine]	7.94 to 316 nM			
CCOc1ccc(Nc2nn3c(-c4ccc(OC)cc4)nnc3c3ccccc23)cc1 [Example 12, (4-Ethoxyphenyl)-[3-(4-methoxyphenyl)-[1,2,4]triazolo[3,4-a]phthalazin-6-yl]-amine]	7.94 to 316 nM		297.5 °C	
Oc1ccccc1-c1nnc2c3ccccc3c(Nc3ccc(N4CCOCC4)cc3)nn12 [Example 26, 2-[6-(4-Morpholin-4-yl-phenylamino)-[1,2,4]triazolo[3,4-a]phthalazin-3-yl]-phenol]	7.94 to 316 nM		317 °C	
COc1ccc(-c2nnc3c4ccccc4c(Nc4ccc(OC(F)F)cc4)nn23)cc1 [Example 30, [4-(1,1-Difluoromethoxy)-phenyl]-[3-(4-methoxyphenyl)-[1,2,4]triazolo[3,4-a]phthalazin-6-yl]-amine]	7.94 to 316 nM		294 °C	
COc1ccc(-c2nnc3c4ccccc4c(Nc4cccc(OCc5ccccc5)c4)nn23)cc1 [Example 4, (3-Benzyloxyphenyl)-[3-(4-methoxyphenyl)-[1,2,4]triazolo[3,4-a]phthalazin-6-yl]-amine]			260 °C	
COc1ccc(-c2nnc3c4ccccc4c(Nc4cccc(Oc5ccccc5)c4)nn23)cc1 [Example 9, [3-(4-Methoxyphenyl)-[1,2,4]triazolo[3,4-a]phthalazin-6-yl]-(3-phenoxyphenyl)-amine]	7.94 to 316 nM			
COc1ccc(-c2ccc(Nc3nn4c(-c5ccc(OC)cc5)nnc4c4ccccc34)cc2)cc1 [Example 6, (4′-Methoxybiphenyl-4-yl)-[3-(4-methoxyphenyl)-[1,2,4]triazolo[3,4-a]phthalazin-6-yl]-amine]	7.94 to 316 nM			
COc1ccc(C(=O)Nc2c(Cl)cncc2Cl)cc1OC1CCCC1 [RP73401, reference compound]				completely blocked
COc1ccc(-c2nnc3c4ccccc4c(Nc4ccc(OC)c(OC)c4)nn23)cc1 [Example 2, (3,4-Dimethoxy-phenyl)-[3-(4-methoxy-phenyl)-[1,2,4]triazolo[3,4-a]phthalazin-6-yl]-amine]	7.94 to 316 nM			
